From ChEMBL document CHEMBL1201862, “PubChem BioAssay data set” (2004)
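Protocol summary: plate cells (96-well), add compound at 5 concentrations, incubate 48 h, interpolate endpoints linearly. At the GI50, growth is halved.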 Active and inactive are the calls of the source. Rule as the data show it: active = GI50 up to about 1.1 µM and inactive = higher.

Legend:
Assay in all cases: NCI-60 cell line screen, 48 h
U-251 = test system: U-251
SR = test system: SR
HCT-116 = test system: HCT-116
OVCAR-4 = test system: OVCAR-4
A498 = test system: A498
SN12C = test system: SN12C
SW-620 = test system: SW-620
CAKI-1 = test system: CAKI-1
A549 = test system: A549
MDA-MB-435 = test system: MDA-MB-435
786-0 = test system: 786-0
UACC-62 = test system: UACC-62
BT-549 = test system: BT-549
K562 = test system: K562
EKVX = test system: EKVX
IGROV-1 = test system: IGROV-1
NCI-H460 = test system: NCI-H460
COLO 205 = test system: COLO 205

Structure (SMILES)	GI50 (U-251)	GI50 (SR)	GI50 (HCT-116)	GI50 (OVCAR-4)	GI50 (A498)	GI50 (SN12C)	GI50 (SW-620)	GI50 (CAKI-1)	GI50 (A549)	GI50 (MDA-MB-435)	GI50 (786-0)	GI50 (UACC-62)	GI50 (BT-549)	GI50 (K562)	GI50 (EKVX)	GI50 (IGROV-1)	GI50 (NCI-H460)	GI50 (COLO 205)
Cc1ccc(-c2n[nH]c(=O)n2/N=C\c2ccc([N+](=O)[O-])cc2)cc1	> 100 µM (inactive)	31.8 µM (inactive)	72.6 µM (inactive)	> 100 µM (inactive)	> 100 µM (inactive)	> 100 µM (inactive)	> 71.9 µM (inactive)	> 100 µM (inactive)	> 100 µM (inactive)	35 µM (inactive)	> 100 µM (inactive)	60.1 µM (inactive)	54.1 µM (inactive)	32 µM (inactive)	> 100 µM (inactive)	> 100 µM (inactive)	> 100 µM (inactive)	> 100 µM (inactive)
O=C(O)CCC(NC(=O)c1ccc(Oc2nc3ccccc3nc2C(=O)O)cc1)C(=O)O (stereo unspecified)	> 100 µM (inactive)	> 100 µM (inactive)	> 100 µM (inactive)	> 100 µM (inactive)	> 100 µM (inactive)		> 100 µM (inactive)	> 100 µM (inactive)	> 100 µM (inactive)	> 100 µM (inactive)	> 100 µM (inactive)	> 100 µM (inactive)	33.3 µM (inactive)	> 100 µM (inactive)	> 100 µM (inactive)	> 100 µM (inactive)	> 100 µM (inactive)	> 100 µM (inactive)
CO/N=[N+](\[O-])NC(C)C	> 100 µM (inactive)	> 100 µM (inactive)	> 100 µM (inactive)	> 100 µM (inactive)	> 100 µM (inactive)	> 100 µM (inactive)	> 100 µM (inactive)	> 100 µM (inactive)	> 100 µM (inactive)	> 100 µM (inactive)	> 100 µM (inactive)	> 100 µM (inactive)	> 100 µM (inactive)	> 100 µM (inactive)	> 100 µM (inactive)	> 100 µM (inactive)	> 100 µM (inactive)	> 100 µM (inactive)
COc1ccc2c(c1)/C(=C\c1c(C)nc3sc(C)cn13)C(=O)N2	0.217 µM (active)	0.409 µM (active)	0.498 µM (active)	12.7 µM (inactive)	0.531 µM (active)	8.49 µM (inactive)	0.687 µM (active)	2.13 µM (inactive)	1.36 µM (inactive)	0.106 µM (active)	2.32 µM (inactive)	0.274 µM (active)	1.66 µM (inactive)	0.446 µM (active)	3.24 µM (inactive)	0.755 µM (active)	0.205 µM (active)	0.14 µM (active)
CC(=O)O[C@H]1C[C@@H](O[C@H]2[C@@H](O)C[C@H](O[C@H]3[C@@H](O)C[C@H](O[C@H]4CC[C@@]5(C)[C@H](CC[C@@H]6[C@@H]5C[C@@H](O)[C@]5(C)[C@@H](C7=CC(=O)OC7)CC[C@]65O)C4)O[C@@H]3C)O[C@@H]2C)O[C@H](C)[C@H]1O.CC(=O)O[C@H]1[C@@H](O)C[C@@H](O[C@H]2[C@@H](O)C[C@H](O[C@H]3[C@@H](O)C[C@H](O[C@H]4CC[C@@]5(C)[C@H](CC[C@@H]6[C@@H]5C[C@@H](O)[C@]5(C)[C@@H](C7=CC(=O)OC7)CC[C@]65O)C4)O[C@@H]3C)O[C@@H]2C)O[C@@H]1C	0.0302 µM (active)	0.0443 µM (active)	0.0262 µM (active)	0.0153 µM (active)	0.0386 µM (active)	0.0423 µM (active)	0.0435 µM (active)	0.0308 µM (active)	0.0119 µM (active)	0.0443 µM (active)	0.0223 µM (active)	0.0387 µM (active)	0.0425 µM (active)	0.0291 µM (active)	0.0175 µM (active)	0.0354 µM (active)	0.0148 µM (active)	0.0472 µM (active)
C=CCOc1ccc(C(=N/NC(=O)c2ccccc2)/N=N/c2ccc([N+](=O)[O-])cc2)cc1OC	> 100 µM (inactive)	> 100 µM (inactive)	58.6 µM (inactive)	> 100 µM (inactive)	> 100 µM (inactive)	> 100 µM (inactive)	> 100 µM (inactive)	> 100 µM (inactive)	> 100 µM (inactive)	> 100 µM (inactive)	> 100 µM (inactive)	> 100 µM (inactive)	> 100 µM (inactive)		> 100 µM (inactive)	> 100 µM (inactive)	64.1 µM (inactive)	> 100 µM (inactive)
CCCCOc1ccc(S(=O)(=O)N/C(=N\O)Nc2ccc(Cl)cc2)cc1	15.5 µM (inactive)	11 µM (inactive)	16.9 µM (inactive)	10.8 µM (inactive)	13.4 µM (inactive)	17.3 µM (inactive)	17.5 µM (inactive)	10.8 µM (inactive)	16.1 µM (inactive)	15.9 µM (inactive)	15.8 µM (inactive)	15.2 µM (inactive)	13.4 µM (inactive)	18.3 µM (inactive)	15.8 µM (inactive)		15.4 µM (inactive)	18.3 µM (inactive)
O=C(O)c1cc(=O)c2c(OCC(O)COc3cccc4oc(C(=O)O)cc(=O)c34)cccc2o1	> 75.2 µM (inactive)	> 81.8 µM (inactive)	> 74.8 µM (inactive)	> 100 µM (inactive)	> 59 µM (inactive)	> 100 µM (inactive)	> 83 µM (inactive)	> 100 µM (inactive)	> 84.3 µM (inactive)	> 67.5 µM (inactive)	> 100 µM (inactive)	> 68.1 µM (inactive)	> 100 µM (inactive)	> 90.2 µM (inactive)	> 96.6 µM (inactive)	> 60.5 µM (inactive)	> 100 µM (inactive)	> 68.4 µM (inactive)
C=C1CC[C@@H]2C13[C@@H]1[C@H](CC(=O)[C@@]23C)C1(C)C (stereo partly specified)	> 100 µM (inactive)	11.7 µM (inactive)	> 100 µM (inactive)	15.5 µM (inactive)	> 100 µM (inactive)	> 100 µM (inactive)	51.4 µM (inactive)	> 100 µM (inactive)	26.4 µM (inactive)	> 100 µM (inactive)	55.1 µM (inactive)	> 100 µM (inactive)	> 100 µM (inactive)	81.5 µM (inactive)		55.7 µM (inactive)	> 100 µM (inactive)	84.5 µM (inactive)
CN1CCN(CCCCN2c3ccccc3Sc3ccc(C(=O)c4ccccc4)cc32)CC1	1.69 µM (inactive)	1.41 µM (inactive)	1.82 µM (inactive)	2.08 µM (inactive)	1.56 µM (inactive)	1.71 µM (inactive)	1.73 µM (inactive)	1.44 µM (inactive)	1.95 µM (inactive)	1.73 µM (inactive)	1.58 µM (inactive)	1.26 µM (inactive)	1.65 µM (inactive)	1.48 µM (inactive)	2.36 µM (inactive)	1.72 µM (inactive)	1.54 µM (inactive)	1.75 µM (inactive)
COc1ccc2oc(OC)c(CC=C(C)C)c(=O)c2c1C	> 100 µM (inactive)	> 100 µM (inactive)	> 100 µM (inactive)		> 100 µM (inactive)	> 100 µM (inactive)	> 100 µM (inactive)	> 100 µM (inactive)	> 100 µM (inactive)	> 100 µM (inactive)	> 100 µM (inactive)	> 100 µM (inactive)	> 100 µM (inactive)	> 100 µM (inactive)	> 100 µM (inactive)	> 100 µM (inactive)	> 100 µM (inactive)	> 100 µM (inactive)
CC1(C)C[C@H]2[C@H](O)C(CO)=C3C(=O)[C@@H](O)[C@]3(C)[C@H]2C1	> 100 µM (inactive)	50.2 µM (inactive)	75.9 µM (inactive)	> 100 µM (inactive)	> 100 µM (inactive)	> 100 µM (inactive)	> 100 µM (inactive)	> 100 µM (inactive)	> 100 µM (inactive)	50.5 µM (inactive)	> 100 µM (inactive)	> 100 µM (inactive)	45.7 µM (inactive)	36.6 µM (inactive)	> 100 µM (inactive)	> 100 µM (inactive)		> 100 µM (inactive)
CCOC(=O)c1nc2ccc(C(F)(F)F)cc2[nH]c1=O	> 100 µM (inactive)	> 100 µM (inactive)	> 100 µM (inactive)	> 100 µM (inactive)	> 100 µM (inactive)	> 100 µM (inactive)	> 100 µM (inactive)	> 100 µM (inactive)	> 100 µM (inactive)	> 100 µM (inactive)	> 100 µM (inactive)	> 100 µM (inactive)	> 100 µM (inactive)	> 100 µM (inactive)		> 100 µM (inactive)	> 100 µM (inactive)	> 100 µM (inactive)
CN(/N=C/c1ccccn1)C1=NCCN1	> 100 µM (inactive)	> 100 µM (inactive)	> 100 µM (inactive)	> 100 µM (inactive)	> 100 µM (inactive)		> 100 µM (inactive)	> 100 µM (inactive)	> 100 µM (inactive)	> 100 µM (inactive)	> 100 µM (inactive)	> 100 µM (inactive)	> 100 µM (inactive)	> 100 µM (inactive)	> 100 µM (inactive)	> 100 µM (inactive)	> 100 µM (inactive)	> 100 µM (inactive)
CCOc1ccc(/N=N/C2C(=O)N(C(=O)CC(=O)Nc3ccccc3)N=C2C)cc1 (stereo unspecified)	34.8 µM (inactive)	27.4 µM (inactive)	29.1 µM (inactive)	> 100 µM (inactive)	79.4 µM (inactive)	82 µM (inactive)	33.4 µM (inactive)	55.3 µM (inactive)	34.5 µM (inactive)	5.07 µM (inactive)	> 100 µM (inactive)	39.5 µM (inactive)	33.6 µM (inactive)		17.4 µM (inactive)	37.3 µM (inactive)	34.6 µM (inactive)	> 100 µM (inactive)
